The values that follow come from US9670226B2, “Sesquiterpenoids” (National Institute of Biological Sciences, Beijing, priority 2014, dated 2017).

For experiment [1], the system named is LPS-triggered inflammatory response (serum TNF-α, IL-6, IL-1β). Kind of experiment: LPS induced inflammatory cytokines in vivo. The following applies: mice pre-injected with compound, then LPS. From the text:
(+)-Ainsliadimer A (223) is a structurally unique and complex sesquiterpene lactone dimer with an unprecedented carbon skeleton, which was originally isolated from Ainsliaea macrocephala used in traditional Chinese medicine for the treatment of various diseases, including angina and rheumatoid arthritis^22. Aiming for the systematical chemical genetic studies using bioactive natural products, we have successfully accomplished the first enantioselective total syntheses of 223 as well as other related dimeric and trimeric sesquiterpenoids^23-25, which provided us ample material to extensively investigate their biological activities and potential therapy application. […] As an endotoxin, LPS is known to cause a systemic inflammatory response and acute tissue injury when injected into mice. Thus, we attempt to examine the effect of 223 on LPS-triggered inflammatory response in vivo. Mice were pre-injected with or without vehicle or 223, and then followed by administration of PBS or LPS.

Experiment [2] has as its system phosphorylation of IκBα. Kind of experiment: poly(I:C) (TLR3 ligand) triggered IκBα phosphorylation. It counts as cell-based.
Experiment [3] concerns phosphorylation of IκBα. Kind of experiment: TNF induced IκBα phosphorylation in different cell lines. It counts as cell-based.
The next experiment deals with T1, IKKβ C46A (Homo sapiens, UniProt O14920, C46A).
T1 construct: Flag; made in house
Kind of experiment: Binding to IKKβ cysteine mutants.

The next experiment addresses T2, IKKβ Cys46 into serine (Homo sapiens, UniProt O14920, C46S).
T2 construct: Flag; made in house
Kind of experiment: Binding to Cys46-to-serine mutant.

Experiment [4] addresses T3, IKKβ C46 containing peptide (#1, #2; amino acids 41-53) (Homo sapiens, UniProt O14920).
T3 construct: encompasses amino acids 41-53 of human IKKβ; made in house; host or cells: chemical peptide synthesis
Kind of experiment: Peptide binding by MALDI-TOF. How it is done: (§1) This peptide was tested for binding to 223 and probe by using MALDI-TOF (Matrix-Assisted […] Desorption/Ionization Time of Flight). m/z values at 2,047.978 and 2,479.259 were well matched with the calculated weights of #1+223 and #1+Probe, respectively. […] As expected, the peptide #2 containing amino acids 41-53 of human IKKβ interacted with both 223 and probe.

For experiment [5], the system named is IKKβ C46 containing peptide (#1, #2; amino acids 41-53). Kind of experiment: Peptide binding by MALDI-TOF. Also noted: species or system human. On the procedure: as §1
Experiment [6] has as its system IKKβ C215 containing peptides #3 and #4. Kind of experiment: Peptide binding by MALDI-TOF. Also noted: species or system human.
Another experiment relates to cancer cells. Kind of experiment: Cell death in cancer cells (cell line not given). The format is cell-based. The settings on record: addition of DTT.

Structures are written as SMILES.

T1 sequence (O14920 whole entry C46A): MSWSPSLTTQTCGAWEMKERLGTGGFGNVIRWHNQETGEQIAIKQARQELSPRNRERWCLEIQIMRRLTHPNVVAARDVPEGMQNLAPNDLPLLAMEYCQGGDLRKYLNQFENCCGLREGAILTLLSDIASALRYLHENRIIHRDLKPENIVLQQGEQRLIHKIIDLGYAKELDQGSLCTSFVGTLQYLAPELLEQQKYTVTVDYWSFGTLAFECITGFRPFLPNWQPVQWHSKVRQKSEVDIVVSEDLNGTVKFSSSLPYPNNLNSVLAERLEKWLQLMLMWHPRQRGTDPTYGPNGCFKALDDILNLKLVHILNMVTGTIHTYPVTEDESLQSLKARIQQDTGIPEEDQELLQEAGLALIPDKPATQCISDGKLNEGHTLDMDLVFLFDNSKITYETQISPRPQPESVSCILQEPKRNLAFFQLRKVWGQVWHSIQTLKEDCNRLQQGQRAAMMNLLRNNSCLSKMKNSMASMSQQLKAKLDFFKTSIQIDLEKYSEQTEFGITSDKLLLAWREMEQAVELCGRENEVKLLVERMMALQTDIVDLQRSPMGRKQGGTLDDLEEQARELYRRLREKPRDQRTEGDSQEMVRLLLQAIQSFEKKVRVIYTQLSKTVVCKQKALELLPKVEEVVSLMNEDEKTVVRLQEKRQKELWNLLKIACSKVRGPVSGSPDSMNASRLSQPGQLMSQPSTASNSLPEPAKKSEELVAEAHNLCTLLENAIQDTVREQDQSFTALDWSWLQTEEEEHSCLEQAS
T2 sequence (O14920 whole entry C46S): as the sequence (O14920 whole entry C46A) above, with A46S counted along it

As to `C=C1C(=O)O[C@@H]2[C@@H]3[C@@H](C[C@@]4(O)[C@]3(O)CC[C@]43C(=O)C[C@H]4C(=C)CC[C@H]5C(=C)C(=O)O[C@@H]5[C@H]43)C(=C)CC[C@@H]12` [Compound 223, (+)-Ainsliadimer A], in experiment [1], the “up-regulation of serum IL-1β” value was “greatly attenuated”, the “up-regulation of serum IL-6” value is on record as “greatly attenuated” and the “up-regulation of serum TNF-α” value is given as “greatly attenuated”. Further, the “phosphorylation of IκBα triggered by poly(I:C)” value in the experiment on phosphorylation of IκBα [2] is given as “markedly suppressed”. In addition, the “TNF induced phosphorylation of IκBα” value in the experiment on phosphorylation of IκBα [3] is listed as “significantly inhibited”. On IKKβ C46A, the “interaction of IKKβ C46A mutant with compound” value is “completely lost the ability to interaction”. Besides, the “interaction with IKKβ Cys46 to serine mutant” value on IKKβ Cys46 into serine is “abolished”. Besides, in experiment [4], the “binding to peptide #1” value was “could bind”. Besides, in experiment [5], the “interaction with peptide #2” value was “interacted”. The “association with peptides #3 and #4” value in [6] is “no association”. In addition, the “compound-triggered inhibition of cell survival” value in the experiment with cancer cells is given as “completely abolished”.
